The target of series [1] is T1, L-histidine decarboxylase (Homo sapiens, UniProt P19113).
T1 sequence (P19113 1-662): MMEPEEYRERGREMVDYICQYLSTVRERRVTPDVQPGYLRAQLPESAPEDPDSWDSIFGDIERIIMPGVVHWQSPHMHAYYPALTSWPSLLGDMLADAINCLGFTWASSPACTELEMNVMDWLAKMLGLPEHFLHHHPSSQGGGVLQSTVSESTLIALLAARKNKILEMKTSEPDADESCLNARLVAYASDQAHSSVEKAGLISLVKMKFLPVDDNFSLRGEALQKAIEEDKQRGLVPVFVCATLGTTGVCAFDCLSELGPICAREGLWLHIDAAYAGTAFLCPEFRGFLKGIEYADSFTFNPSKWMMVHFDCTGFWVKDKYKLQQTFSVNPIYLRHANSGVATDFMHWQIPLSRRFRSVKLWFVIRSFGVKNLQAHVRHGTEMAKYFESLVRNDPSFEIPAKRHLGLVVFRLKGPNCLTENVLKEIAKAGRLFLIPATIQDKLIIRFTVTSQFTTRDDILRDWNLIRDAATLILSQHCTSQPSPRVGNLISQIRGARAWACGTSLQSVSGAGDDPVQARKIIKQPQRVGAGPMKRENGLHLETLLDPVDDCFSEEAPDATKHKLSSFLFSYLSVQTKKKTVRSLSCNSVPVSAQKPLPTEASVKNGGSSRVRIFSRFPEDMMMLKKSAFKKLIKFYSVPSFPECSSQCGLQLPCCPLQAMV
The conditions noted are these: background statement; cited from earlier work.

A short description of another series: physchem. The following applies: organic solvent or mixture.
The conditions of series [2]: in water at room temperature; background statement; cited from earlier work.
The conditions of series [3]: hydrochloride formed in situ by addition of hydrochloric acid to tritoqualine in solution; background statement; cited from earlier work.
Series [4] is described as follows: Solubility in organic solvents (ethers, alcohols, glycols, ketones). The class given is physicochemical.
The next series can be described thus: Solubility in ethanol. The following applies: at 20° C.

≈ marks a conversion by molar mass, not a printed value. Where only a bound is given, the exact number is not on record here.

The melting point is the temperature, or range, at which the solid turns liquid. Usually solubility stands for the dissolved amount per volume that the medium holds. `CCOc1c(N)c2c(c(OCC)c1OCC)C(C1c3c(cc4c(c3OC)OCO4)CCN1C)OC2=O` (centres unmarked) [Base, 7-amino-4,5,6-triethoxy-3-(4-methoxy-6-methyl-7,8-dihydro-5H-[1,3]dioxolo[4,5-g]isoquinoline-5-yl)-3H-isobenzofuran-1-one] yielded a melting point of 184 °C. Also, the “Activity as enzymatic inhibitor of L-histidine decarboxylase” value in series [1] is listed as “very low”. In addition, the solubility in “physchem” (20 °C) was found to be 2.5 mg/mL (≈ 4.99 mM). Further, the solubility in “physchem” was 50 mg/mL (≈ 99.9 mM). Also, in series [2], the Solubility in water is reported as 100 ppm.
tritoqualine hydrochloride: in series [3], the “Half lifetime in an aqueous solution” value is listed as “a few hours”. In series [4] (alcohols and glycols), the “Solubility in alcohols and glycols compared with tritoqualine base” value is listed as “much more soluble than tritoqualine base”. In series [4] (ethers), the Solubility in ethers result is reported as “very little soluble or even insoluble”. Besides, the “Solubility in primary alcohols, acetone and methyl ethyl ketone” value in series [4] (primary alcohols, acetone, methyl ethyl ketone) was “soluble”. Moreover, in “Solubility in ethanol”, the Solubility in ethanol was above 300 g/l at. In addition, the “Behaviour in aqueous solution at pH>3.0” value in the series “Solubility in water” is reported as “precipitates”.

The values are drawn from US9718833B2, “Tritoqualine hydrochloride in crystalline form and a process for obtaining same” (priority 2013, dated 2017).
